melting point: 147 to 154 °C
SMILES: O=C(C[C@H]1CC[C@@](c2cc(F)ccc2F)(S(=O)(=O)c2ccc(Cl)cc2)CC1)c1ncn[nH]1 [Example 91]

From patent publication US7304094B2, “Cyclohexyl sulphones” (Merck Sharp + Dohme, priority 2001, dated 2007)
